Data from ChEMBL document CHEMBL1201862, “PubChem BioAssay data set” (2004).
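Cells were grown in 96-well plates and exposed to each compound for 48 hours at five concentrations; endpoints were interpolated linearly between bracketing concentrations, or set to the highest concentration if not reached. GI50: concentration for 50% inhibition of growth.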 Active and inactive are the calls of the source. Cut-off read from the data, not from the text of the source: active = GI50 up to about 1.1 µM and inactive = higher.

Columns and labels:
Test in all cases: NCI-60 cell line screen, 48 h
[1] = system: CAKI-1
[2] = system: CCRF-CEM
[3] = system: DU-145
[4] = system: HCT-116
[5] = system: HL-60
[6] = system: IGROV-1
[7] = system: K562
[8] = system: LOX IMVI
[9] = system: MCF7
[10] = system: MDA-MB-231
[11] = system: MDA-MB-435
[12] = system: Malme-3M
[13] = system: NCI-H460
[14] = system: NCI-H522
[15] = system: PC-3
[16] = system: RPMI-8226
[17] = system: SF-539
[18] = system: SN12C
[19] = system: T47D
[20] = system: SF-268

Measured: GI50

CC(=O)Nc1cccc(N2C(=O)/C(=C\c3cccc(Oc4ccccc4)c3)S(=O)(=O)C2c2ccccc2)c1 (stereo not given)
inactive: [1] 53.5 µM | [2] 57.8 µM | [3] > 100 µM | [4] 34.1 µM | [5] 18.9 µM | [6] 50.7 µM | [7] 26.7 µM | [8] 27.7 µM | [9] 34 µM | [10] > 100 µM | [11] 34 µM | [12] > 100 µM | [13] > 100 µM | [14] 69 µM | [15] 64.3 µM | [16] 61.5 µM | [17] 36 µM | [18] > 100 µM | [19] 25 µM

Cc1ccc2c(=O)c(-c3nnc(N)s3)c[nH]c2n1
inactive: [1] > 100 µM | [2] > 100 µM | [3] > 100 µM | [4] > 100 µM | [5] > 100 µM | [6] > 100 µM | [7] > 100 µM | [8] > 100 µM | [9] > 100 µM | [10] > 100 µM | [11] > 100 µM | [12] > 100 µM | [13] > 100 µM | [14] > 100 µM | [15] > 100 µM | [16] > 100 µM | [20] 36.3 µM | [18] > 100 µM | [19] > 100 µM

CCOC(=O)c1sc2nc(SC)nc(Nc3ccc4c(c3)OCCCO4)c2c1N
inactive: [1] > 100 µM | [2] 4.66 µM | [3] 31.8 µM | [4] 67.1 µM | [5] > 100 µM | [6] > 100 µM | [7] 9.04 µM | [8] 34.8 µM | [9] 7.71 µM | [10] 33 µM | [11] 11.1 µM | [12] 16.7 µM | [14] 3.3 µM | [15] 20 µM | [16] 4.25 µM | [20] 20.8 µM | [17] 14.3 µM | [18] > 100 µM | [19] 2.14 µM

N#CCN(Cc1ccccc1)[C@@H]1CCC[C@]1(O)C#Cc1ccc2c(c1)OCO2
inactive: [1] 22.2 µM | [2] 17.6 µM | [3] 27.4 µM | [5] 20.6 µM | [6] 17.1 µM | [7] 20.3 µM | [8] 15.9 µM | [9] 16.9 µM | [10] 16.9 µM | [11] 18.5 µM | [12] 18.2 µM | [13] 16.1 µM | [14] 16.1 µM | [15] 19.7 µM | [16] 16 µM | [20] 19.1 µM | [17] 11.7 µM | [19] 16.6 µM

CCOC(CBr)OC1C(=O)OCC1(C)C (stereo not given)
inactive: [1] > 100 µM | [2] > 100 µM | [3] > 100 µM | [4] > 100 µM | [5] > 100 µM | [6] > 100 µM | [7] > 100 µM | [8] > 100 µM | [9] > 100 µM | [10] > 100 µM | [11] > 100 µM | [12] > 100 µM | [13] > 100 µM | [14] > 100 µM | [15] > 100 µM | [16] > 100 µM | [20] > 100 µM | [18] > 100 µM | [19] > 100 µM

COc1c(C)c(OC)c(C(=O)CC(C)C)c(OC)c1C
inactive: [1] > 100 µM | [2] > 100 µM | [3] > 100 µM | [4] 65.6 µM | [5] 7.01 µM | [6] > 100 µM | [8] 62.7 µM | [9] > 100 µM | [10] > 100 µM | [11] > 100 µM | [12] > 100 µM | [14] > 100 µM | [15] 52.4 µM | [16] 20.3 µM | [20] > 100 µM | [17] > 100 µM | [18] > 100 µM | [19] 68.1 µM

CNC(=O)c1ccccc1-[s+]1c2ccccc2c(=O)n1C (stereo not given)
inactive: [1] > 100 µM | [2] > 100 µM | [3] > 100 µM | [4] > 100 µM | [5] > 100 µM | [6] > 100 µM | [7] > 100 µM | [8] > 100 µM | [9] > 100 µM | [10] > 100 µM | [11] > 100 µM | [12] > 100 µM | [14] > 100 µM | [15] > 100 µM | [16] > 100 µM | [20] > 100 µM | [17] > 100 µM | [18] > 100 µM | [19] > 100 µM

Cn1c(N)nc2c(nc(OCc3ccccc3)n2C2OC(CO)C(O)C2O)c1=O (stereo not given)
inactive: [1] > 100 µM | [2] > 100 µM | [3] > 100 µM | [4] > 100 µM | [5] > 100 µM | [6] > 100 µM | [7] > 100 µM | [8] > 100 µM | [9] > 100 µM | [10] > 100 µM | [11] > 100 µM | [12] > 100 µM | [13] > 100 µM | [14] > 100 µM | [15] > 100 µM | [16] > 100 µM | [20] > 100 µM | [18] > 100 µM | [19] > 100 µM
